Measured values reported in ChEMBL document CHEMBL1152691, “Design and synthesis of novel 2',3'-dideoxy-4'-selenonucleosides as potential antiviral agents” (Bioorg Med Chem, 2008).
Active and inactive are the calls of the source. The calls are words filed in the database; no cut-off is given here.

System: Human immunodeficiency virus
Assay: Antiviral activity against HIV
Type: functional, organism-based

**Q.** With `Cc1cn([C@H]2CC[C@@H](CO)[Se]2)c(=O)[nH]c1=O` as the molecule, how does the Activity read?
**A.** The Activity was “inactive”.

**Q.** With `Nc1ccn([C@H]2CC[C@@H](CO)[Se]2)c(=O)n1` as the molecule, how does the Activity read?
**A.** Its Activity is “inactive”.

**Q.** `O=c1ccn([C@H]2CC[C@@H](CO)[Se]2)c(=O)[nH]1` was tested. Which Activity did it give?
**A.** Its Activity is “inactive”.
